Patent publication US20170226139A1, “CRYSTALLINE SALTS OF (Z)-O-OCTADEC-9-EN-1-YL O,O-DIHYDROGEN PHOSPHOROTHIOATE” (priority 2013, published 2017)
Read-outs that look alike come from different tables or passages of the source.

Key:
[1] = biological target: T1, Human LPA1 (Homo sapiens, UniProt Q92633); test: Calcium-mobilization assay (FURA-2), human LPA1 transfected cells; format: cell-based; conditions: for EC50: EC50 [nM], mean
T1 construct: expressed in transfected cells; host or cells: mouse embryonic fibroblasts (MEF)
T1 sequence (Q92633 whole entry): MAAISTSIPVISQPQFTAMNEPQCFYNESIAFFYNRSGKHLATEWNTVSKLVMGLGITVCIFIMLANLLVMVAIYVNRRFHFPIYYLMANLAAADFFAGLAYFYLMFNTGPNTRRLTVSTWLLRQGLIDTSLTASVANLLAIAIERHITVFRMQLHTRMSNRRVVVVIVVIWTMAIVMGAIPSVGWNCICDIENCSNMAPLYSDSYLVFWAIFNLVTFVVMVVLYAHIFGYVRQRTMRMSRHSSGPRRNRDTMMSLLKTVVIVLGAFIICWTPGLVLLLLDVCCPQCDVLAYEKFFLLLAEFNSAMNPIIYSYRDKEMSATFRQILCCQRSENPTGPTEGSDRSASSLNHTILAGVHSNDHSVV
Method: We investigated structure-activity relationships across species, LPAR subtypes and between Rx100 and two known process impurities encountered in manufacture: Rx103 (‘E’ isomer) and Rx200 (oleyl phosphate and impurity, which can be an Rx100 degradant along with oleyl alcohol). Rx100, Rx103, Rx200 and native LPA were investigated at different human LPAR subtypes. In addition, the activity of these compounds was evaluated at LPA2 receptors from the rhesus, rat and mouse species. Human LPA1/2/3 subtypes were transfected into mouse embryonic fibroblasts (MEF) or rat hepatoma cells (RH7777)—both of which are normally non-responsive or null to LPA. Human LPA4 was transfected into Chinese hamster ovary (CHO) cells and LPA5 into the B103 neuroblastoma cell line. […] The B103 rat neuroblastoma cell line is endogenously nonresponsive to LPA but expresses heterologous LPA5 receptors well. […] LPAR activation elicits a G-protein-mediated transient rise in intracellular calcium level that is proportional to the concentration of LPA applied. The intracellular calcium level was quantified by the calcium-selective fluorescent indicator FURA-2 (e.g., increased intracellular calcium surge=increased fluorescence).

[2] = Subcutaneous and intravenous pharmacokinetics in healthy and irradiated Rhesus Macaques; format: in vivo
Method: We performed a cross-over comparison of subcutaneous and intravenous pharmacokinetics of Rx100.L-Lysine in six healthy Rhesus Macaques and subcutaneous pharmacokinetic and Pharmacodynamics of Rx100.L-Lysine after a single irradiation in six Rhesus Macaques.
Rhesus macaques (male, 3-5 kg) were administered vehicle control article (10 mM Histidine in sterile water for Injection, USP) or Rx100.Lysine salt as a single injection via subcutaneous injection or as an intravenous bolus as indicated in Table 32.
Blood was collected at baseline (7-10 days prior to dose administration), pre-dose (within 30 minutes), 0.5, 1, 2, 4, 6, 8, 24, 48, 72, 96, and 120 hours after dosing for phases 1 and 2. The phase 3 (post-irradiation phase) blood was collected at baseline (7-10 days prior to dose administration), pre-dose (within 30 minutes), 0.5, 1, 2, 4, 6, 8, 24, 48, 72, and 96 hours after dosing. The dose in phase 3 was administered approximately 24 hours after exposure to 11.5 Gy Partial Body Irradiation. Samples, approximately 1.0 mL, were collected and maintained on wet ice in vials containing Di-Potassium EDTA until centrifugation. Samples were stored in a freezer set to maintain −70° C. to −90° C. until shipped on dry ice for analysis.
Analysis was performed using qualified and validated Phoenix® WinNonlin® Software and RxBio™ SOP PRE-0030™, Phoenix® WinNonlin® Software for Statistical Analysis. The final data provided was imported into Phoenix® WinNonlin®. All data presented were generated using the validated Phoenix® WinNonlin® Software. Concentrations reported as BLOQ were treated as missing values for the purpose of this analysis. A non-compartmental pharmacokinetic analysis was performed for each subject separately for IV, SC, and SC+IR. The automatic terminal slope selector function was used along with nominal dose (1 mg/kg) with a dosing interval set at 120 hours since this was a single dose study. The terminal slope was selected from the last 3 quantifiable plasma concentrations for each subject (48-96 hours for the Phase 3 Irradiated subjects and 72-120 for all healthy subjects). Selected pharmacokinetic estimations are presented in Table 33, time of maximum concentration (Tmax (h)), maximum concentration observed (Cmax (ng/mL)), exposure or area under the concentration vs time curve (AUC (h*ng/mL)), volume of distribution (Vz_F ([…])), clearance (CL_F (mL/h/kg), and half-life (T½ or HL_Lambda_z (h)).

[3] = SC 1 mg/kg about 24 h after 11.5 Gy, Average of 6 animals
[4] = SC 1 mg/kg, healthy, Average of 6 animals
[5] = male, rhesus monkey, plasma, iv, 1 mg/kg, IV 1 mg/kg, healthy, Average of 6 animals
[6] = male, rhesus monkey, plasma, iv, 1 mg/kg, IV 1 mg/kg, healthy, individual animals (ID in c1)
[7] = male, rhesus monkey, plasma, sc, 1 mg/kg, SC 1 mg/kg about 24 h after 11.5 Gy, Average of 6 animals
[8] = male, rhesus monkey, plasma, sc, 1 mg/kg, SC 1 mg/kg, healthy, Average of 6 animals

CCCCCCCC/C=C\CCCCCCCCOP(O)(O)=S [Rx100, (Z)—O-octadec-9-en-1-yl O,O-dihydrogen phosphorothioate]
EC50 ([1]; LPA1 DKO MEF, human): 273 nM | EC50 ([1]; LPA1 RH7777, human): 1030 nM | Emax ([1]; RH7777, read-out: Emax (% of LPA)): 69% | Emax ([1]; read-out: Emax (% of LPA)): 70%

CCCCCCCC/C=C\CCCCCCCCOP(O)(O)=S [Rx100.L-Lysine, (Z)—O-octadec-9-en-1-yl O,O-dihydrogen phosphorothioate]
λz ([2]; IV 1 mg/kg, healthy, Average of 6 animals): 0.049 ± 0.020 h⁻¹ | CL [2, 3]: 0.333 ± 0.12 mL/min/kg | Vd [2, 3]: 0.251 ± 0.091 L/kg | λz [2, 3]: 0.079 ± 0.006 h⁻¹ | Vd [2, 4]: 0.26 ± 0.083 L/kg | λz [2, 4]: 0.066 ± 0.004 h⁻¹ | F ([2]; SC post IR): 0.89±0.2 | clearance (CL) ([2]; SC post IR, 1 mg/kg): 0.333 ± 0.12 mL/min/kg | volume of distribution (Vd) ([2]; SC post IR, 1 mg/kg): 0.251 ± 0.091 L/kg | fraction absorbed after subcutaneous administration (F) ([2]; SC, healthy, versus IV): 1.0±0.18 | volume of distribution (Vd) ([2]; SC, healthy, single dose 1 mg/kg): 0.26 ± 0.083 L/kg | AUC [2, 5]: 63200 ± 15100 ng·h/mL | Cmax [2, 5]: 18600 ± 1760 ng/mL | AUC(0-inf) ([2]; male, rhesus monkey, plasma, iv, 1 mg/kg, IV 1 mg/kg, healthy, Average of 6 animals, read-out: AUCINF): 63200 ± 15100 ng·h/mL | clearance ([2]; male, rhesus monkey, plasma, iv, 1 mg/kg, IV 1 mg/kg, healthy, Average of 6 animals, read-out: CL (converted)): 0.283 mL/min/kg | half-life ([2]; male, rhesus monkey, plasma, iv, 1 mg/kg, IV 1 mg/kg, healthy, Average of 6 animals, read-out: T1/2 (converted)): 16.4 ± 7.29 h | Vd ([2]; male, rhesus monkey, plasma, iv, 1 mg/kg, IV 1 mg/kg, healthy, Average of 6 animals, read-out: Vd): 0.428 ± 0.29 L/kg | AUC [2, 6]: 73500 ng·h/mL | Cmax [2, 6]: 15900 ng/mL | AUC(0-inf) ([2]; male, rhesus monkey, plasma, iv, 1 mg/kg, IV 1 mg/kg, healthy, individual animals (ID in c1), read-out: AUCINF): 73500 ng·h/mL | clearance ([2]; male, rhesus monkey, plasma, iv, 1 mg/kg, IV 1 mg/kg, healthy, individual animals (ID in c1), read-out: CL (converted)): 0.233 mL/min/kg | clearance ([2]; male, rhesus monkey, plasma, iv, 1 mg/kg, IV, healthy, 1 mg/kg, read-out: clearance (CL) (converted)): 0.283 mL/min/kg | AUC(0-inf) ([2]; male, rhesus monkey, plasma, iv, 1 mg/kg, IV, healthy, 1 mg/kg, read-out: exposure (AUCINF)): 63200 ± 15100 ng·h/mL | half-life ([2]; male, rhesus monkey, plasma, iv, 1 mg/kg, IV, healthy, 1 mg/kg, read-out: half-life (converted)): 16.4 ± 7.29 h | Vd ([2]; male, rhesus monkey, plasma, iv, 1 mg/kg, IV, healthy, 1 mg/kg, read-out: volume of distribution (Vd)): 0.428 ± 0.29 L/kg | half-life ([2]; male, rhesus monkey, plasma, iv, 1 mg/kg, IV, healthy, read-out: half-life, range of individual subjects): 9.37 to 28.8 h | Cmax ([2]; male, rhesus monkey, plasma, iv, 1 mg/kg, intravenous bolus, healthy): 18600 ± 1760 ng/mL | AUC [2, 7]: 57300 ± 24200 ng·h/mL | Cmax [2, 7]: 3110 ± 887 ng/mL | Tmax [2, 7]: 4 ± 2 h | AUC(0-inf) ([2]; male, rhesus monkey, plasma, sc, 1 mg/kg, SC 1 mg/kg about 24 h after 11.5 Gy, Average of 6 animals, read-out: AUCINF): 57300 ± 24200 ng·h/mL | half-life ([2]; male, rhesus monkey, plasma, sc, 1 mg/kg, SC 1 mg/kg about 24 h after 11.5 Gy, Average of 6 animals, read-out: T1/2 (converted)): 8.76 ± 0.621 h | half-life ([2]; male, rhesus monkey, plasma, sc, 1 mg/kg, SC 1 mg/kg about 24 h after 11.5 Gy, individual animals (ID in c1), read-out: T1/2 (converted)): 9.21 h | AUC [2, 8]: 63700 ± 21400 ng·h/mL | Cmax [2, 8]: 3130 ± 637 ng/mL | Tmax [2, 8]: 4 ± 2 h | AUC(0-inf) ([2]; male, rhesus monkey, plasma, sc, 1 mg/kg, SC 1 mg/kg, healthy, Average of 6 animals, read-out: AUCINF): 63700 ± 21400 ng·h/mL | half-life ([2]; male, rhesus monkey, plasma, sc, 1 mg/kg, SC 1 mg/kg, healthy, Average of 6 animals, read-out: T1/2 (converted)): 10.5 ± 0.6 h | Cmax ([2]; male, rhesus monkey, plasma, sc, 1 mg/kg, SC 1 mg/kg, healthy, individual animals (ID in c1)): 2390 ng/mL | half-life ([2]; male, rhesus monkey, plasma, sc, 1 mg/kg, SC 1 mg/kg, healthy, individual animals (ID in c1), read-out: T1/2 (converted)): 10.6 h | Cmax ([2]; male, rhesus monkey, plasma, sc, 1 mg/kg, SC post IR): 3110 ± 887 ng/mL | Tmax ([2]; male, rhesus monkey, plasma, sc, 1 mg/kg, SC post IR (~24 hours after 11.5 Gy Partial Body Irradiation), 1 mg/kg): 4 ± 2 h | AUC(0-inf) ([2]; male, rhesus monkey, plasma, sc, 1 mg/kg, SC post IR, 1 mg/kg, read-out: exposure (AUCINF)): 57300 ± 24200 ng·h/mL | half-life ([2]; male, rhesus monkey, plasma, sc, 1 mg/kg, SC post IR, 1 mg/kg, read-out: half-life (converted)): 8.76 ± 0.621 h | half-life ([2]; male, rhesus monkey, plasma, sc, 1 mg/kg, SC, healthy, read-out: T½, range of individual subjects): 9.67 to 10.7 h | AUC(0-inf) ([2]; male, rhesus monkey, plasma, sc, 1 mg/kg, SC, healthy, single dose 1 mg/kg, read-out: exposure (AUCINF)): 63700 ± 21400 ng·h/mL | half-life ([2]; male, rhesus monkey, plasma, sc, 1 mg/kg, SC, healthy, single dose 1 mg/kg, read-out: half-life (converted)): 10.5 ± 0.6 h | half-life ([2]; male, rhesus monkey, plasma, sc, 1 mg/kg, SC, irradiated animals, read-out: half-life, range of individual subjects): 7.88 to 9.66 h | Cmax ([2]; male, rhesus monkey, plasma, sc, 1 mg/kg, healthy, single dose 1 mg/kg): 3130 ± 637 ng/mL | Tmax ([2]; male, rhesus monkey, plasma, sc, 1 mg/kg, healthy, single dose 1 mg/kg, mean ± SD): 4 ± 2 h
